Results reported in ChEMBL document CHEMBL1201862, “PubChem BioAssay data set” (2004).
Calls of active or inactive are those of the source.

Columns and labels:
Cytochrome P450 2D6 = Cytochrome P450 2D6 (Homo sapiens, UniProt P10635);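 also: CYP2D6 member of a cytochrome P450 panel assay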
[1] = biological target: Voltage-dependent T-type calcium channel subunit alpha-1H (Homo sapiens, UniProt O95180); type: functional;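 also: channel activity triggered by adding a high calcium stimulation buffer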
[2] = Trypanosoma cruzi growth suppression in host cells – NIH3T3 host cells, beta-gal luminescence, confirmation (AID 2044); type: functional, cell-based;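 also: intracellular parasites grown in NIH/3T3 mouse fibroblasts as host cells; luminescent beta-galactosidase reporter signal from transgenic T. cruzi replicating inside host cells; inhibitors lower the luminescence signal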
[3] = NIH3T3 cell viability loss – ATP luminescence, mouse fibroblasts, counter-screen, dose response (AID 2010); type: functional, cell-based;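 also: cells exposed to compound for about 90 hours before reading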
[4] = luciferase reporter signal suppression in cells – H4 neuroglioma cells, luminescence, dose response (AID 1990); type: functional, cell-based
[5] = Luminescence Cell-Based Dose Response HTS to Identify Inhibitors of 5'UTR Stem-Loop Driven Prion Protein mRNA Translation in H4 Neuroglioblastoma Cells. [Related pubchem assays: 1827 (Project Summary), 1813 (Primary HTS)]; type: functional
[6] = alpha-synuclein stem-loop luciferase translation blockers – H4 neuroglioma cells, luminescence, confirmation (AID 1988); type: functional, cell-based
Aminopeptidase N = biological target: T1, Aminopeptidase N (Plasmodium falciparum FcB1/Columbia, UniProt O96935); experiment: malaria alanyl aminopeptidase activity blockers – biochemical, fluorogenic H-Leu-NHMec substrate, 1536-well (AID 1445); parameters: species or system Plasmodium falciparum 3D7, 3D7
T1 sequence (O96935 whole entry): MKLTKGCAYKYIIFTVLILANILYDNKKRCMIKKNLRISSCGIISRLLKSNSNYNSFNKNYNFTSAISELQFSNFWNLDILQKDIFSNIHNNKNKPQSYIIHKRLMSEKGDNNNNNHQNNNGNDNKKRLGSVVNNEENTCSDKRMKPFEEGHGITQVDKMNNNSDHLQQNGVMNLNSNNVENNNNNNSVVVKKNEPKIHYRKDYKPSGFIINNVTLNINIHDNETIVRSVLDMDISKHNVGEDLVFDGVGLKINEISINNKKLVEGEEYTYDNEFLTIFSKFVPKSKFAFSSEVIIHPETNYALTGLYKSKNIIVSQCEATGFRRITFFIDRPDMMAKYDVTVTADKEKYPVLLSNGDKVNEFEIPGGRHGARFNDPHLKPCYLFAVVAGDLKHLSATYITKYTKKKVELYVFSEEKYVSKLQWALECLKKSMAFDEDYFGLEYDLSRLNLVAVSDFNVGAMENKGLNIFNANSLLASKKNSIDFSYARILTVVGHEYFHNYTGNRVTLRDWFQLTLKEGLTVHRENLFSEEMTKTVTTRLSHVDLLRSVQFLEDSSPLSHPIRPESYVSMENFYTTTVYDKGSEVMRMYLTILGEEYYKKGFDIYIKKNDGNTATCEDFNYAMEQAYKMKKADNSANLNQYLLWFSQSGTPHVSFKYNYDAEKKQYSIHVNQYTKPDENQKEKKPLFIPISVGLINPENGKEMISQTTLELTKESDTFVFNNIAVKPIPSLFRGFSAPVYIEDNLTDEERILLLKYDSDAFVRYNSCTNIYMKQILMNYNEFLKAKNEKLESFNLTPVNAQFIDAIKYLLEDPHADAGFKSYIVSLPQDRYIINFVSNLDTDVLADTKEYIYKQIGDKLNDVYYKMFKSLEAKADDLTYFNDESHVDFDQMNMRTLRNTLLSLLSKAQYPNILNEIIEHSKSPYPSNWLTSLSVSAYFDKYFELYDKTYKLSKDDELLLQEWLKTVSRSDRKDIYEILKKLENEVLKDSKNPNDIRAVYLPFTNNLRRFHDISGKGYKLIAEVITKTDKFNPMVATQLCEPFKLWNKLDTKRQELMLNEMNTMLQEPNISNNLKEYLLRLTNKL

[7] = biological target: Luciferin 4-monooxygenase (Photinus pyralis, UniProt P08659); experiment: inhibition of purified Photinus pyralis luciferase – biochemical, luminescence, dose response (AID 1891)
[8] = Luminescence Cell-Based Dose Confirmation HTS to Identify Inhibitors of Platelet Dense Granule Release. [Related pubchem assays: 1663 (Primary HTS), 1678 (Summary of Project)]; type: functional
[9] = biological target: T2, Short transient receptor potential channel 4 (Mus musculus, UniProt Q9QUQ5); experiment: block of DAMGO-driven TRPC4 calcium entry – cell-based, HEK293 TRPC4/mu-opioid, Fluo-4 calcium, dose response (AID 434942); type: functional;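 also: potency of inhibitors blocking the TRPC4 calcium response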
T2 sequence (Q9QUQ5 whole entry): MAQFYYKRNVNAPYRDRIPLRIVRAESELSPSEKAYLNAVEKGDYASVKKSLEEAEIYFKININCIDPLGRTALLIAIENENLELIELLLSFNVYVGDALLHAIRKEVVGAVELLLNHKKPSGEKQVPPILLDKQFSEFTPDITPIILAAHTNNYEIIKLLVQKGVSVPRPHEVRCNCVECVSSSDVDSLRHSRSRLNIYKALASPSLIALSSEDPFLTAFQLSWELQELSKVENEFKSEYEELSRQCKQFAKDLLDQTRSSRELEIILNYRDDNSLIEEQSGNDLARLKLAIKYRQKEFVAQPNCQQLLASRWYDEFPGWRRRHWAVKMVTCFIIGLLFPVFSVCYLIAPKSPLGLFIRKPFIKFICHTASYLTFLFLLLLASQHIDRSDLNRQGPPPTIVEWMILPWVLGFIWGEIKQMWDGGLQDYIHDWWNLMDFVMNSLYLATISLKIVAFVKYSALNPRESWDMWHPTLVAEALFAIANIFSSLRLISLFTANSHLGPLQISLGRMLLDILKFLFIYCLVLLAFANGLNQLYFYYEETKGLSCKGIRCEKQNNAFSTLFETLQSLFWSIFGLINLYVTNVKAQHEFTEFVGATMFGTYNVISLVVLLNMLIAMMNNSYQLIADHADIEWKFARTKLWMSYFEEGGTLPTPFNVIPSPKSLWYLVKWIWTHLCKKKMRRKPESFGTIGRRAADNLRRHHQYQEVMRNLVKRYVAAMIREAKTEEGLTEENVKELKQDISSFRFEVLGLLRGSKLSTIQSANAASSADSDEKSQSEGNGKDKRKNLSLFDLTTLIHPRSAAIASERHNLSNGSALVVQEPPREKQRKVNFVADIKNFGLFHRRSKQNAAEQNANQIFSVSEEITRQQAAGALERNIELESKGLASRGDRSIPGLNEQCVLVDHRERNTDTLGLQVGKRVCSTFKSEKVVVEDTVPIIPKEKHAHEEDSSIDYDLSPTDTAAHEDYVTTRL

Paired box protein Pax-8 = Paired box protein Pax-8 (Homo sapiens, UniProt Q06710); experiment: PAX8 transcriptional activity inhibition in RMG-I – RMG-I cells, luciferase, cherry-pick, dose response (AID 687027); type: functional, cell-based;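 also: luciferase reporter driven by Pax8 target thyroperoxidase promoter measured by SteadyGlo luminescence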
Cytochrome P450 1A2 = biological target: T3, Cytochrome P450 1A2 (Homo sapiens, UniProt P05177);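 also: PubChem cytochrome P450 panel assay, CYP1A2 panel member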
T3 sequence (P05177 whole entry): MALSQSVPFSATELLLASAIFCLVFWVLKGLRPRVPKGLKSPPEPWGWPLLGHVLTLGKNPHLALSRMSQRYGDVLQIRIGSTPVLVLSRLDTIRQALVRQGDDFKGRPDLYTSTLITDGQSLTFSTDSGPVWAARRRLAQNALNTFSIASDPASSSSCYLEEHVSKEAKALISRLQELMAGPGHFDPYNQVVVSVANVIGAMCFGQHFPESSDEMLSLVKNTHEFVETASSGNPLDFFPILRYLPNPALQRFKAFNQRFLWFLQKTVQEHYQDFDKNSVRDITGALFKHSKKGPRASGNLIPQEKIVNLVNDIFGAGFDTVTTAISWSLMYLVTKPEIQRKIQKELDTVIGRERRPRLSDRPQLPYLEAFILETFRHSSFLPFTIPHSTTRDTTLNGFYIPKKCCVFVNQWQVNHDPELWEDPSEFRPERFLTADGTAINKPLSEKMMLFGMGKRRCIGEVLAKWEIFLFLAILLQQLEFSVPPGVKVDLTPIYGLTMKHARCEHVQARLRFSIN

[10] = viability of uninfected HEp-2 cells – cell-based, HTS, cytotoxicity control for RSV inhibitor project, dose response (AID 2410); type: functional; details: human respiratory syncytial virus

Sequence of Luciferin 4-monooxygenase (P08659 whole entry): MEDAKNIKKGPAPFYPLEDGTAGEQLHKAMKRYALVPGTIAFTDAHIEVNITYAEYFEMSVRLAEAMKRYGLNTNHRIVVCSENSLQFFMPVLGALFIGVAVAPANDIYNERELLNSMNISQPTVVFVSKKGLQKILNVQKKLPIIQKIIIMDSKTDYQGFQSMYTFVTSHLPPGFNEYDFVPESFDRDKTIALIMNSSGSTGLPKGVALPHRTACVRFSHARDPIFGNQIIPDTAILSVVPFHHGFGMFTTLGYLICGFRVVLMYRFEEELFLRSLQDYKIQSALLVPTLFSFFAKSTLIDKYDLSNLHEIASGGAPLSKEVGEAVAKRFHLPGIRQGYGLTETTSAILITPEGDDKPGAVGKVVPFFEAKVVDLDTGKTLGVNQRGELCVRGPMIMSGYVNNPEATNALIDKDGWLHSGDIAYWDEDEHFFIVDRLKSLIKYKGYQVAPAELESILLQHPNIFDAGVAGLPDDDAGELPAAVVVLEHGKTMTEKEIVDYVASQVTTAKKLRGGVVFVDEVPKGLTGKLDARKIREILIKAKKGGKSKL
Sequence of Voltage-dependent T-type calcium channel subunit alpha-1H (O95180 whole entry): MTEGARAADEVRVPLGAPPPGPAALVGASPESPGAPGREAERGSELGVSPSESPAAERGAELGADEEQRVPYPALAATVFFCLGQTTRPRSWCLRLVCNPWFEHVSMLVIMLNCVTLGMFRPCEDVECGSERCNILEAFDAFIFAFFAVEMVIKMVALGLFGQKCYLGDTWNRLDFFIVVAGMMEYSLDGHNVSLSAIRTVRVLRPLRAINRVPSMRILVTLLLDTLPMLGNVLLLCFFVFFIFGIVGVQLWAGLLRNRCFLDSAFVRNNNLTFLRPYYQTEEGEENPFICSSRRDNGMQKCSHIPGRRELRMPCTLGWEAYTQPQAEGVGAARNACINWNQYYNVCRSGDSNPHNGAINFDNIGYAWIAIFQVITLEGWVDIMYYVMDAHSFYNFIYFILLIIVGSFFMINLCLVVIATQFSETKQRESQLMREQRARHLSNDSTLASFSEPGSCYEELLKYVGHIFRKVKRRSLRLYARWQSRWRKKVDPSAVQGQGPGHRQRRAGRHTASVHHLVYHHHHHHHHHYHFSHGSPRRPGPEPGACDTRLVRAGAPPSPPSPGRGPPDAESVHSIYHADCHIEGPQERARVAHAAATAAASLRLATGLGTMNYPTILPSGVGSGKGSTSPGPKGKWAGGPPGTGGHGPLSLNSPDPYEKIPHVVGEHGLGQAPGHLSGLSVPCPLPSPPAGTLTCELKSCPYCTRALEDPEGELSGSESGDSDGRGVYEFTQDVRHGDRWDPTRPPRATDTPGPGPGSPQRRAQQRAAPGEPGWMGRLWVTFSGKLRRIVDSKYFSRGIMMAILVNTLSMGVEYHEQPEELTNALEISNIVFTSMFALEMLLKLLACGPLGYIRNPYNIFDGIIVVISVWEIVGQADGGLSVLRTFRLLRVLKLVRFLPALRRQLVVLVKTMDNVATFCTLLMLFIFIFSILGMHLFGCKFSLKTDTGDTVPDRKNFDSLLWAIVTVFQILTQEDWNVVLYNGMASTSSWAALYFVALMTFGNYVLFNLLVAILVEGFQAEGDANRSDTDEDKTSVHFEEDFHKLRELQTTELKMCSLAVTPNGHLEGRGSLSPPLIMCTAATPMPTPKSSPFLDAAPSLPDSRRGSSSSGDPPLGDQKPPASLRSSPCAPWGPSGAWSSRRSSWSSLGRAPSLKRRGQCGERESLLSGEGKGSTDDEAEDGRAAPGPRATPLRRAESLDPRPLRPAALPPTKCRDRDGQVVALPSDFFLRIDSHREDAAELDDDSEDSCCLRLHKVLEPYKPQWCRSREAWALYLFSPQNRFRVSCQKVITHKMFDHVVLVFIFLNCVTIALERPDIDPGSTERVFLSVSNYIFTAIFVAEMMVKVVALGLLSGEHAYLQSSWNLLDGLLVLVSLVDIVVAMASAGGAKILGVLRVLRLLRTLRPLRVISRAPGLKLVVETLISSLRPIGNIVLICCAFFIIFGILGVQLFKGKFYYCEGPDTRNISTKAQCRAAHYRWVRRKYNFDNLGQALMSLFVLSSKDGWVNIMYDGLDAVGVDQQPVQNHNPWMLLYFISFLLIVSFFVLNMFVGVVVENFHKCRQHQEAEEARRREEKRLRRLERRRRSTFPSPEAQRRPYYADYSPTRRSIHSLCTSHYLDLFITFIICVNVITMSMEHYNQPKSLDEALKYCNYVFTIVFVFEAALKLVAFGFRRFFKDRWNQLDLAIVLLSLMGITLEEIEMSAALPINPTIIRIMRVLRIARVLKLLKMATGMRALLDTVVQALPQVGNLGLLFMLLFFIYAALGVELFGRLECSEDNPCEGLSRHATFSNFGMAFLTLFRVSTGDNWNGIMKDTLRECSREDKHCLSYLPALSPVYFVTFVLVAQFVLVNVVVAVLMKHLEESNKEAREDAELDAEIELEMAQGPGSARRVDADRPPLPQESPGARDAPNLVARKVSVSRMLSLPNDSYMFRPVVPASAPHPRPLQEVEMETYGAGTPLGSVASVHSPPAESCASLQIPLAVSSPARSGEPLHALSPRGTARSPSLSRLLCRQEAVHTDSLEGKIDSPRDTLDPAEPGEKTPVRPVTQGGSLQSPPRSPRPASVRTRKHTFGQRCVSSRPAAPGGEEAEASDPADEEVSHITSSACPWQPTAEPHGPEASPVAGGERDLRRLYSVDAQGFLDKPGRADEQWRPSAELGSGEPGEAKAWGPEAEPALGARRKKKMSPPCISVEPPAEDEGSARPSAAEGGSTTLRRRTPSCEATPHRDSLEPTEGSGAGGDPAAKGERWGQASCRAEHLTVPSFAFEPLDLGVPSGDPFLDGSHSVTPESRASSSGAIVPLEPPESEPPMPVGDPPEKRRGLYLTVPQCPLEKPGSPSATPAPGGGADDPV
Sequence of Paired box protein Pax-8 (Q06710 whole entry): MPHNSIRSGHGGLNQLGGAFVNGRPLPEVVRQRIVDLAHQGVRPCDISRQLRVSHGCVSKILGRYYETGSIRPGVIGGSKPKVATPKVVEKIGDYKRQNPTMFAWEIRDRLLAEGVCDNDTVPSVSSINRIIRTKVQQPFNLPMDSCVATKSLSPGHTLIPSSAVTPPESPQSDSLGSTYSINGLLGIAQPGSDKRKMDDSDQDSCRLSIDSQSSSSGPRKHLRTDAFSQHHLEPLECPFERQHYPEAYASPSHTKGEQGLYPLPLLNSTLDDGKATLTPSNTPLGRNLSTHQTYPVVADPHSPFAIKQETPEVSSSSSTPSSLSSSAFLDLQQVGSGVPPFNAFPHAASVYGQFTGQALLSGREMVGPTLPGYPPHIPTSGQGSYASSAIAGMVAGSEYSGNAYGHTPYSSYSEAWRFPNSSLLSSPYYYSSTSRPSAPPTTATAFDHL
Sequence of Cytochrome P450 2D6 (P10635 whole entry): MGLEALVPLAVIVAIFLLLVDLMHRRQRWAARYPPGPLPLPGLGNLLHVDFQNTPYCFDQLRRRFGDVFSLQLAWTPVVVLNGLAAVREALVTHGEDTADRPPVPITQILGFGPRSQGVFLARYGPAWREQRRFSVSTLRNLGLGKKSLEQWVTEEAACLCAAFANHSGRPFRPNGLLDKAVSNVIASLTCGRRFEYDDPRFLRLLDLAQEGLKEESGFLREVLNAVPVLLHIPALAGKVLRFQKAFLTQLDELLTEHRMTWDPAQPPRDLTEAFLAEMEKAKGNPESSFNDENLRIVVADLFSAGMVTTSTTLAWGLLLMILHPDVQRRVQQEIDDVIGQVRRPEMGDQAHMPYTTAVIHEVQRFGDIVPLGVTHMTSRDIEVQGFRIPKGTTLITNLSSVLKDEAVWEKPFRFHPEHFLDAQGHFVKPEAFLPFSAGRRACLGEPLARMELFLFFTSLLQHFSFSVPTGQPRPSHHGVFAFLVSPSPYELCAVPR

Row | Structure (SMILES) | EC50 [4] | EC50 [5] | EC50 [6] | EC50 [7] | EC50 [8] | other results
1 | COc1cccc(N(C(=O)Cn2nnc(-c3ccc(C)cc3)n2)C(C(=O)NC(C)(C)C)c2c[nH]c3ccccc23)c1 (stereo not given) |  |  |  |  |  | AC50 (Cytochrome P450 2D6): 20 µM (inconclusive); EC50 [1]: 8.67 µM (active)
2 | CCOc1ccccc1CNC(=O)C1CCN(c2nnc(C)c3c(C)n(-c4ccc(C)cc4)nc23)CC1 | 8.11 µM (active) | 12.6 µM (active) | 9.02 µM (active) |  |  | EC50 [2]: 1.45 µM (active); EC50 [3]: 9.4 µM (active)
3 | Cc1ccc(-c2csc3ncnc(SCc4ccc(C(=O)O)cc4)c23)cc1 |  |  |  |  |  | IC50 (Aminopeptidase N): 44.6 µM (active)
4 | Cc1ccccc1C(=O)NC1CCN(C(=O)N2CCOCC2)CC1 |  |  |  | > 112 µM (not active) | > 112 µM (not active) | 
5 | COc1ccc(CN(C(=O)c2snc(C(N)=O)c2N)C(CC(C)C)C(=O)NC2CCCCC2)cc1 (stereo not given) |  |  |  |  |  | EC50 [9]: 1.33 µM (active)
6 | COc1ccc(-c2nc(C[S+]([O-])CC(=O)NC3CCCCC3C)c(C)o2)cc1 (stereo not given) |  |  |  | > 112 µM (not active) | > 112 µM (not active) | 
7 | O=C(NCCN1C(=O)S/C(=C\c2ccc(OC(F)F)cc2)C1=O)c1cnccn1 | > 120 µM (not active) | 26.3 µM (active) | > 120 µM (not active) |  |  | AC50 (Paired box protein Pax-8): 15.5 µM (active)
8 | COCCNc1nc(N)c([N+](=O)[O-])c(NC2CCCCC2)n1 | 16.2 µM (active) | > 120 µM (not active) | 77.7 µM (active) |  |  | 
9 | COc1ccc(CNc2nc3ccccc3n2Cc2ccccc2)cc1OC |  |  |  |  |  | EC50 [1]: 7.3 µM (active); AC50 (Cytochrome P450 1A2): 22.4 µM (inconclusive)
10 | CC(C)c1ccc(NC(S)=NC2CCN(Cc3ccccc3)CC2)cc1 |  |  |  | > 112 µM (not active) | > 112 µM (not active) | CC50 [10]: 20.6 µM (active)
